This is an account of results in patent publication US20200407398A1, “Short Proline-Rich Lipopeptide Potentiates Minocycline and Rifampicin Against Multidrug-and Extensively Drug-Resistant Pseudomonas Aeruginosa” (priority 2018, published 2020).

Peptide text beside a SMILES is read from it. * marks the point of attachment. Acetyl(1-adamantyl) = O=C(CC12CC3CC(CC(C3)C1)C2)*; Octanoyl = CCCCCCCC(=O)*

One data set concerns E. coli ATCC 25922. The class given is cell-based. As to the method: (§1) The synthesized SPRLPs were evaluated for their antibacterial potency against a panel of Gram-positive and Gram-negative bacteria (Tables 2 & 3). Some of the included pathogens were collected from patients visiting or admitted to participating Canadian hospitals through the CAN-ICU (27) and CANWARD (28) national surveillance studies. Antibacterial activity was assessed using minimum inhibitory concentration (MIC) against various clinical pathogens.
(§2) Isolates used in this study were either obtained from the American Type Culture Collection (ATCC), the Canadian National Intensive Care Unit (CAN-ICU) surveillance study (27) or the Canadian Ward Surveillance (CANWARD) study (28). Clinical isolates belonging to the CAN-ICU and CANWARD studies were recovered from patients suffering a presumed infectious disease entering or admitted in a participating medical center across Canada during the time of study. MDR P. aeruginosa strains in this study refer to those that are resistant to aminoglycosides, fluoroquinolones, cephalosporins, and carbapenems while XDR strains are those that are resistant to aminoglycosides, fluoroquinolones, cephalosporins, carbapenems, aztreonam and penicillin+β-lactamase inhibitor combination (39, 40).
(§3) Microbroth dilution susceptibility test following the Clinical and Laboratory Standards Institute (CLSI) guidelines (32) was performed to assess the in vitro antibacterial activity of SPRLPs. Overnight grown bacterial cultures were diluted in saline to achieve a 0.5 McFarland turbidity, followed by 1:50 dilution in Mueller-Hinton broth (MHB) for inoculation to a final concentration of 5×10^5 colony forming units/mL. The assay was done on a 96-well plate to which the agents of interest were 2-fold serially diluted in MHB and incubated with equal volumes of inoculum at 37° C. for 18 hours. MIC was determined as the lowest concentration to inhibit visible bacterial growth in form of turbidity, which was confirmed using EMax Plus microplate reader (Molecular Devices, USA) at a wavelength of 590 nm. The well containing MHB broth with or without bacterial cells was used as positive or negative control, respectively.

For data set [1], the system named is P. aeruginosa wild-type PAO1. The class given is cell-based. The protocol:
as §1, §2, §3

For data set [2], the system named is A. baumannii CAN-ICU 63169. It is filed as cell-based. The protocol:
as §1, §2, §3

The test system of data set [3] is methicillin-resistant S. epidermidis CAN-ICU 61589 (ceftazidime-resistant). The class given is cell-based. Conditions: methicillin-resistant CAN-ICU 61589 (ceftazidime-resistant). As to the method: as §1, §2, §3
The test system of data set [4] is P. aeruginosa CANWARD-2011 96846 (gentamicin-, tobramycin-resistant). It is filed as cell-based. The protocol: as §1, §2, §3
Another data set has as its system S. aureus ATCC 29213. It is filed as cell-based. The protocol: as §1, §2, §3
For data set [5], the system named is S. maltophilia CAN-ICU 62584. It is filed as cell-based. The protocol: as §1, §2, §3
Data set [6] has as its system E. coli CAN-ICU 61714 (gentamicin-resistant). It is filed as cell-based. As to the method: as §1, §2, §3
The subject of another data set is K. pneumoniae ATCC 13883. The class given is cell-based. The protocol:
as §1, §2, §3

A further data set concerns E. faecium ATCC 27270. It is filed as cell-based. As to the method: as §1, §2, §3
For data set [7], the system named is methicillin-susceptible Staphylococcus epidermidis CANWARD-2008 81388. It is filed as cell-based. Conditions: methicillin-susceptible CANWARD-2008 81388. As to the method:
as §1, §2, §3

In data set [8] the test system is methicillin-resistant S. aureus ATCC 33592. It is filed as cell-based. The protocol:
as §1, §2, §3

Data set [9] relates to E. coli CANWARD-2011 97615 (gentamicin-, tobramycin-, ciprofloxacin-resistant) aac(3′)iia. It is filed as cell-based. As to the method:
as §1, §2, §3

For another data set, the system named is E. faecalis ATCC 29212. It is filed as cell-based. As to the method: as §1, §2, §3
The subject of the next data set is P. aeruginosa ATCC 27853. It is filed as cell-based. The protocol: as §1, §2, §3
Data set [10] deals with P. aeruginosa CAN-ICU 62308 (gentamicin-resistant). It is filed as cell-based. The protocol: as §1, §2, §3
Data set [11] relates to E. coli CAN-ICU 63074 (amikacin-intermediate resistant). It is filed as cell-based. The protocol:
as §1, §2, §3

In data set [12] the test system is wild-type and MDR/XDR P. aeruginosa clinical isolates. Conditions: checkerboard assay; P. aeruginosa. As to the method:
We evaluated the activity of SPRLPs in combination with fifteen clinically-used antibiotics against P. aeruginosa. Antibiotics tested included fluoroquinolones (moxifloxacin, ciprofloxacin and levofloxacin), aminoglycosides (gentamicin, tobramycin and amikacin), cephalosporins (ceftazidime and cefotaxime), carbapenems (meropenem and doripenem), aztreonam, rifampicin, minocycline, colistin and fosfomycin. The SPRLPs were screened initially at a fixed concentration of 8 μg/mL (5 μM) in combination with antibiotics against wild-type P. aeruginosa PAO1. We assessed potentiation by at least a four-fold absolute MIC reduction of the antibiotic, after which synergism was further validated by a conventional checkerboard assay. A fractional inhibitory concentration (FIC) index of ≤0.5, 0.5<x≤4 or >4 was interpreted as synergistic, indifferent or antagonistic interaction, respectively (31). FIC index was obtained by adding the FIC values of the antibiotic and the SPRLP adjuvant. FIC of antibiotics was calculated by dividing the MIC of the antibiotic in the presence of the adjuvant by the MIC of the antibiotic alone. Similarly, the FIC of adjuvant was calculated via dividing the MIC of the adjuvant in the presence of the antibiotic by the MIC of the adjuvant alone.
as §2, §3
The assay was performed on a 96-well plate, to which the agents of interest was 2-fold serially diluted in working MHB. Prior to serial dilution, SPRLP was added to the working MHB media so that a fixed final concentration of 8 μg/mL (5 μM) SPRLP per well was achieved. To ensure that the assay was working, the MIC determination test of the studied antibiotic (without SPRLP) was included on the same plate. Similar MIC results between the assay comparator and an independent MIC determination test (on a different plate) ensured validity of the synergy test. Overnight grown bacterial cultures were diluted in saline to 0.5 McFarland turbidity, followed by 1:50 dilution in MHB (without SPRLP) and inoculation into each well to a final concentration of approximately 5×10^5 colony forming units/mL. Wells containing only MHB (without SPRLP) with or without bacterial cells were used as positive or negative control, respectively.

In another data set the test system is pig erythrocytes. It is filed as cell-based. To be noted: red cells of porcine. The protocol: Since PRAMPs are able to kill bacteria through membrane lysis, it is imperative to evaluate whether these synthesized SPRLPs also lyse eukaryotic membranes. The ability to lyse porcine red blood cells was assessed and the minimum concentration to result in 5% erythrocyte hemolysis (MHC) was reported (Tables 2 & 3). […] This greatly limits their therapeutic potential. […] However, all other SPRLPs were non-hemolytic (MHC>512 μg/mL).
The ability of SPRLPs to lyse eukaryotic red blood cells were quantified by the amount of hemoglobin released upon incubation with pig erythrocytes, following published protocols (37, 39). Fresh pig blood drawn from pig antecubital vein was centrifuged at 1000×g for 5 minutes at 4° C., washed with PBS three times and re-suspended in the same buffer, consecutively. Then, agents of interest were 2-fold serially diluted in PBS on 96-well plate and mixed with equal volumes of erythrocyte solution. Post 1-hour incubation at 37° C., intact cells were pelleted by centrifugation at 1000×g for 5 minutes at 4° C. The supernatant was then transferred to a new 96-well plate. The hemoglobin released was measured via EMax Plus microplate reader (Molecular Devices, USA) at 570 nm wavelength. Erythrocytes in PBS with or without 0.1% Triton X-100 was used as negative or positive control, respectively.

Turning to `CCCCCCCC(=O)N1CCC[C@H]1C(=O)N[C@@H](CCCNC(=N)N)C(=O)N1CCC[C@H]1C(=O)N[C@@H](CCCNC(=N)N)C(=O)N1CCC[C@H]1C(=O)N[C@@H](CCCNC(=N)N)C(=O)N1CCC[C@H]1C(N)=O` [Compound C8-PRP, CH3(CH2)6CO-PRPRPRP-NH2] (Octanoyl-PRPRPRP-NH2), the minimum inhibitory concentration (MIC) with E. coli ATCC 25922 was above 128 µg/mL; in data set [1], above 512 µg/mL; in [2], above 128 µg/mL; in data set [3], above 128 µg/mL; in data set [4] it was above 128 µg/mL; in the data set with S. aureus ATCC 29213 it was above 128 µg/mL. In addition, the minimum inhibitory concentration (MIC) (in data set [5]; in data set [6]; in the data set on K. pneumoniae ATCC 13883; in the data set with E. faecium ATCC 27270; in data set [7]; in data set [8]) was above 128 µg/mL in each case. The MIC (in data set [9]; in the data set on E. faecalis ATCC 29212; in the data set on P. aeruginosa ATCC 27853; in [10]; in [11]) was above 128 µg/mL each time. For the same molecule, the “interaction with minocycline (in words)” value in [12] is “indifferent interaction”. Moreover, the “interaction with rifampicin (in words)” value in data set [12] was “indifferent interaction”. Besides, the “MHC (minimum concentration that resulted in 5% red blood cell hemolysis)” value in the data set on pig erythrocytes is above 512 µg/mL.

With `N=C(N)NCCC[C@H](NC(=O)[C@@H]1CCCN1C(=O)[C@H](CCCNC(=N)N)NC(=O)[C@@H]1CCCN1C(=O)[C@H](CCCNC(=N)N)NC(=O)[C@@H]1CCCN1C(=O)CC12CC3CC(CC(C3)C1)C2)C(=O)N1CCC[C@H]1C(N)=O` [Ad-PRP, Adamantyl-CH2CO-PRPRPRP-NH2] ({Acetyl(1-adamantyl)}-PRPRPRP-NH2), the minimum inhibitory concentration (MIC) in the data set with E. coli ATCC 25922 is above 128 µg/mL; in [1] it was above 512 µg/mL; in data set [2], above 128 µg/mL; in [3], above 128 µg/mL; in [4], above 128 µg/mL; in the data set with S. aureus ATCC 29213, above 128 µg/mL. Also, the minimal inhibitory concentration (MIC) (in data set [5]; in data set [6]; in the data set on K. pneumoniae ATCC 13883; with E. faecium ATCC 27270; in data set [7]; in data set [8]) was above 128 µg/mL in each case. The minimum inhibitory concentration (MIC) (in data set [9]; with E. faecalis ATCC 29212; in the data set on P. aeruginosa ATCC 27853; in data set [10]; in data set [11]) was above 128 µg/mL throughout. The “interaction with minocycline (in words)” value in data set [12] is “indifferent interaction”. In addition, in [12], the “interaction with rifampicin (in words)” value is “indifferent interaction”. The “MHC (minimum concentration that resulted in 5% red blood cell hemolysis)” value in the data set with pig erythrocytes is above 512 µg/mL.

What is called MIC is the least concentration at which growth counts as inhibited.
